According to patent US11395829B2, “Inhibitors of metallo-beta-lactamases produced by multidrug-resistant bacteria” (MYONGJI UNIVERSITY INDUSTRY AND ACADEMIA COOPERATION …, priority 2019, dated 2022):
Like-named read-outs stand apart in the source and are kept apart here.

Assays:
Format in all cases: biochemical
NDM-1 = NDM-1 (Klebsiella pneumoniae, UniProt C7C422); experiment: NDM-1 inhibition assay with nitrocefin as substrate
Protocol: The screened seven compounds were dissolved in 100% DMSO at 10 mM. More diluted stocks were prepared as necessary. NDM-1 activity was determined by monitoring the change of absorbance at 482 nm using the characteristic molecular extinction coefficient (Δε482=15,900 M^−1 cm^−1) of nitrocefin (NCF) (Oxoid, Hampshire, UK) by a Shimazu UV-1650PC spectrophotometer. Up to 5% DMSO, no influence on the enzyme activities of MBLs was observed. The assays were conducted in 50 mM MES (pH 7.0) containing an enzyme (263 nM), 100 μM ZnCl2, and 100 μg/mL bovine serum albumin. After 5 min of pre-incubation of the purified enzyme and inhibitor at 30° C., the enzymatic reaction was started by adding nitrocefin (100 μM). Residual velocities were determined after 5 minutes. The first 120 s of each reaction was used to measure initial rates. Data were evaluated using Microsoft Excel. Concentration-dependent inhibition of NDM-1 was measured using different concentrations of seven compounds resulting from two-fold dilution series. Reaction progress at every concentration of seven compounds was measured in triplicates. IC50 values were calculated using 4-parameter log fits using XL Fit curve fitting software (www.idbs.com) for Excel using the following equation: […]
where y is the remaining enzyme activity (in %) and x is the corresponding concentration. The fitted IC50 parameter is defined as the concentration giving a response half way between the fitted top (B) and bottom (A) of the curve. […]
To investigate the inhibitory effects of novel compounds (DCPBA, ACP-DCPBA, and CHP-DCPBA) against four clinically-important subclass B1 MBLs (NDM-1, IMP-1, VIM-2, and GIM-1), subclass B2 MBL (CphA), and subclass B3 MBL (GOB-1), the IC50 values for them were determined (Table 4). […] Activities of MBLs were determined by monitoring the change of absorbance at 482 nm. […] Data were evaluated using Microsoft Excel. Reaction progress at every concentration of DCPBA (ACP-DCPBA or CHP-DCPBA) was measured in triplicates.

IMP-1 = IMP-1 (Serratia marcescens, UniProt P52699); experiment: IMP-1 inhibition assay with nitrocefin as substrate; details: Subclass B1 MBL, enzyme 891 nM, 100 μM nitrocefin, 5 minute pre-incubation
IMP-1, sequence (P52699 21-246 limits assumed): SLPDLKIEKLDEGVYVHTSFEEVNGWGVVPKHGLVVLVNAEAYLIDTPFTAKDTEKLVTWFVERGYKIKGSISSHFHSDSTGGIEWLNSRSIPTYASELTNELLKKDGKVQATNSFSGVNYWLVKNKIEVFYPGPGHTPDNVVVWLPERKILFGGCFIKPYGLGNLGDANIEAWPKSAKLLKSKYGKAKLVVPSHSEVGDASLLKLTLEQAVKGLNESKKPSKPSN
From the text: (§1) The blaNDM-1 gene (GenBank ID: FN396876) from K. pneumoniae clinical isolate, blaIMP-1 gene (GenBank ID: S71932) from Acinetobacter baumannii clinical isolate, and blaVIM-2 gene (GenBank ID: AF191564) from Citrobacter freundii clinical isolate were cloned after PCR amplification with primer pairs (Table 3) and then sequenced. Those three clinical isolates were collected from a university hospital in the Republic of Korea. Three DNA templates encoding blaGIM-1 gene (GenBank ID: AJ620678), blacphA gene (GenBank ID: X57102), and blaGOB-1 gene (GenBank ID: AF090141), which are codon optimized for E. coli, were synthesized and purchased from IDT (Integrated DNA Technologies, Coralville, Iowa, USA). The DNA templates were amplified by PCR using suitable primer pairs (Table 3). The amplified DNA and pET-30a(+) vector (Novagen, Madison, Wis., USA) were double-digested with NdeI and XhoI, with digested DNA then ligated into the digested vector. After verifying the DNA sequences, the plasmids, pET-30a(+)/His6-blaNDM-1, pET-30a(+)/His6-blaIMP-1, pET-30a(+)/His6-blaVIM-2, pET-30a(+)/His6-blaGIM-1, pET-30a(+)/His6-blacphA, and pET-30a(+)/His6-blaGOB-1 were individually transformed into E. coli BL21 (DE3) cells. Each of the histidine-tagged proteins, NDM-1, IMP-1, VIM-2, GIM-1, CphA, and GOB-1 were prepared as previously described (Park, et al., J. Glob. Antimicrob. Resist., 14, 302-305 (2018)).
(§2) To investigate the inhibitory effects of novel compounds (DCPBA, ACP-DCPBA, and CHP-DCPBA) against four clinically-important subclass B1 MBLs (NDM-1, IMP-1, VIM-2, and GIM-1), subclass B2 MBL (CphA), and subclass B3 MBL (GOB-1), the IC50 values for them were determined (Table 4). Compounds (DCPBA, ACP-DCPBA, and CHP-DCPBA) were dissolved in 100% DMSO at 10 mM. Activities of MBLs were determined by monitoring the change of absorbance at 482 nm. Up to 5% DMSO, no influence on the enzyme activities of MBLs was observed. […] Data were evaluated using Microsoft Excel. Reaction progress at every concentration of DCPBA (ACP-DCPBA or CHP-DCPBA) was measured in triplicates.

VIM-2 = VIM-2 (Pseudomonas aeruginosa, UniProt Q9K2N0); experiment: VIM-2 inhibition assay with nitrocefin as substrate
From the text: as §1, §2

GIM-1 = GIM-1 (Pseudomonas aeruginosa, UniProt Q704V1); experiment: GIM-1 inhibition assay with nitrocefin as substrate
GIM-1, sequence (Q704V1 19-250): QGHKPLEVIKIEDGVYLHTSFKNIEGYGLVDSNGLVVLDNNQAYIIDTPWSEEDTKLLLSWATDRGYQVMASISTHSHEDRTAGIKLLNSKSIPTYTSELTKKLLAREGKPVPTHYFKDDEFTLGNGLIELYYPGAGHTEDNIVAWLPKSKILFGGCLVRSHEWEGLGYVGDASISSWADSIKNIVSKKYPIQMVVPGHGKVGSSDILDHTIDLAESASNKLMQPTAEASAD
From the text: as §1, §2

CphA = CphA (Aeromonas hydrophila, UniProt P26918); experiment: CphA inhibition assay with nitrocefin as substrate; details: for IC50 of CphA relative to that for DCPBA: fold lower than DCPBA
CphA, sequence (P26918 28-254): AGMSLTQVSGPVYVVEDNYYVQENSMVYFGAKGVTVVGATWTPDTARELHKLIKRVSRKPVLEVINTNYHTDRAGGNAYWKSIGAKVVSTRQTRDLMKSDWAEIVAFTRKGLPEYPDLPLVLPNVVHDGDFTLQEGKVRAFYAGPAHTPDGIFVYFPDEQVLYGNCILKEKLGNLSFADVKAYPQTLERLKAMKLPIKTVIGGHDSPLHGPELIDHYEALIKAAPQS
From the text: as §1
To investigate the inhibitory effects of novel compounds (DCPBA, ACP-DCPBA, and CHP-DCPBA) against four clinically-important subclass B1 MBLs (NDM-1, IMP-1, VIM-2, and GIM-1), subclass B2 MBL (CphA), and subclass B3 MBL (GOB-1), the IC50 values for them were determined (Table 4). Compounds (DCPBA, ACP-DCPBA, and CHP-DCPBA) were dissolved in 100% DMSO at 10 mM. Activities of MBLs were determined by monitoring the change of absorbance at 482 nm. Up to 5% DMSO, no influence on the enzyme activities of MBLs was observed. Each enzyme (NDM-1, 263 nM; IMP-1, 891 nM; VIM-2, 81 nM; GIM-1, 662 nM; CphA, 157 nM; GOB-1, 2.69 μM) was mixed with 100 μM nitrocefin after a 5 minute pre-incubation with compounds (DCPBA, ACP-DCPBA, and CHP-DCPBA). The first 120 s of each reaction was used to measure initial rates. Data were evaluated using Microsoft Excel. Reaction progress at every concentration of DCPBA (ACP-DCPBA or CHP-DCPBA) was measured in triplicates.

GOB-1 = GOB-1 (Elizabethkingia meningoseptica, UniProt Q9RB00); experiment: GOB-1 inhibition assay with nitrocefin as substrate; details: Subclass B3 MBL, enzyme 2.69 μM, 100 μM nitrocefin, 5 minute pre-incubation
GOB-1, sequence (Q9RB00 entry or part of it): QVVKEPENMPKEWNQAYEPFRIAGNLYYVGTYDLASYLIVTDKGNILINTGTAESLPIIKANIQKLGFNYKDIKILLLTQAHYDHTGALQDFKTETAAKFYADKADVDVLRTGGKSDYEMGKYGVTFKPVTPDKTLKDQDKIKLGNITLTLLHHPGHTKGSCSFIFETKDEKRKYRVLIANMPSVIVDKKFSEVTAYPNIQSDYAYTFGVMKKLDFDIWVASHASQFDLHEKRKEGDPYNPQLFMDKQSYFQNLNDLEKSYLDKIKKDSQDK
From the text: as §1, §2

[1] = Subclass B1 MBL, enzyme 263 nM, 100 μM nitrocefin, 5 minute pre-incubation, read-out: IC50 NDM-1

NDM-1, sequence (C7C422 30-270 limits assumed, looked up): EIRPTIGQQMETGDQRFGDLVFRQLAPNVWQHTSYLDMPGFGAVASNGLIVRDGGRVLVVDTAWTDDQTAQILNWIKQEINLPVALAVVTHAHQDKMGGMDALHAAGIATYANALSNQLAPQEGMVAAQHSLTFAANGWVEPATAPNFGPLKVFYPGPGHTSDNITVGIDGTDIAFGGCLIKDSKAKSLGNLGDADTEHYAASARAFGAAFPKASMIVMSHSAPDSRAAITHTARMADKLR

Compound	IC50 (NDM-1; [1]) [µM]	IC50 (IMP-1) [µM]	IC50 (VIM-2) [µM]	IC50 (GIM-1) [µM]	IC50 (CphA) [µM]	IC50 of CphA relative to that for DCPBA (CphA)	IC50 (GOB-1) [µM]	IC50 (NDM-1; NDM-1 263 nM, nitrocefin 100 μM, 50 mM MES pH 7.0, 5 min pre-incubation at 30° C., read-out: IC50 values on NDM-1 of the screened compounds) [µM]	IC50 (GIM-1; Subclass B1 MBL, enzyme 662 nM, 100 μM nitrocefin, 5 minute pre-incubation, read-out: IC50 GIM-1) [µM]	IC50 (CphA; Subclass B2 MBL, enzyme 157 nM, 100 μM nitrocefin, 5 minute pre-incubation, read-out: IC50 CphA) [µM]
Nc1ccc(Oc2c(Cl)cc(B(O)O)cc2Cl)cc1Cl [ACP-DCPBA, (4-(4-amino-3-chlorophenoxy)-3,5-dichlorophenyl)boronic Acid]	78.78 ± 0.01	738.41 ± 0.01	22.78 ± 0.01	144.64 ± 0.01	90.19 ± 0.01	six-fold lower	790.24 ± 0.02	–	–	–
OB(O)c1cc(Cl)cc(Cl)c1 [Compound 1, 3,5-Dichlorophenylboronic Acid]	–	738.88 ± 0.01	27.33 ± 0.01	144.64 ± 0.01	530.87 ± 0.02	–	798.9 ± 0.02	79.9	–	–
OB(O)c1cc(Cl)c(Oc2ccc(Cl)cc2O)c(Cl)c1 [CHP-DCPBA, (3,5-dichloro-4-(4-chloro-2-hydroxyphenoxy)phenyl)boronic acid]	37.77 ± 0.01	468.3 ± 0.01	15.15 ± 0.01	–	–	six-fold lower	468.5 ± 0.01	–	81.35 ± 0.03	80.81 ± 0.01
